Measured values reported in patent US12539306B2, “Mucoadhesive pharmaceutical compositions of corticosteroids” (Ferring B.V., priority 2018, dated 2026).
In brackets after ≈: the same amount, converted by molar mass. Where two headings read alike, the source gives them in different places.

Experiment: Solubility of budesonide at room temperature
Format: physicochemical
Method: The solubility at room temperature of budesonide in water was determined to be about. 0.01 mg/ml, about 1 mg/ml in glycerin and about 10 mg/ml in propylene glycol at room temperature.

solubility (organic solvent or mixture, glycerin, read-out: solubility in glycerin): ~1000 µg/mL (≈ 2320 µM)
solubility (organic solvent or mixture, propylene glycol, read-out: solubility in propylene glycol): ~10000 µg/mL (≈ 23200 µM)
solubility (water, read-out: solubility in water): ~10 µg/mL (≈ 23.2 µM)
SMILES: CCCC1O[C@@H]2C[C@H]3[C@@H]4CCC5=CC(=O)C=C[C@]5(C)[C@H]4[C@@H](O)C[C@]3(C)[C@]2(C(=O)CO)O1 (stereo partly drawn) [budesonide, 16,17-butylidenebis(oxy)-11,21-dihydroxy-, (11β, 16α)-pregna-1,4-diene-3,20-dione]
